Converted amounts (≈) assume the structure as drawn. Read-outs that look alike come from different tables or passages of the source.
How the values were obtained:
[1] = tested on: Escherichia coli K-12 ML 1629; assay: microbe, parasite or virus in culture; format: cell-based; settings: K12ML1629
[2] = tested on: Mycobacterium 607; assay: MIC, standard serial dilution method; format: cell-based; settings: Mueller-Hinton agar, 37° C
[3] = tested on: Escherichia coli K-12 LA 290 R55; assay: microbe, parasite or virus in culture; format: cell-based; settings: K12LA290R55
[4] = tested on: Pseudomonas aeruginosa GN 315; assay: MIC, standard serial dilution method; format: cell-based; settings: GN315; Pseudomonas aeruginosa GN 315; resistance mechanism AAC(6'); Mueller-Hinton agar, 37° C; read-out: MIC
[5] = tested on: Corynebacterium bovis 1810; assay: MIC, standard serial dilution method; format: cell-based; settings: Mueller-Hinton agar, 37° C
[6] = tested on: Klebsiella pneumoniae 22#3038; assay: MIC, standard serial dilution method; format: cell-based; settings: resistance mechanism APH(3')-II, ANT(2"), Mueller-Hinton agar, 37° C
[7] = tested on: Pseudomonas aeruginosa A3; assay: MIC, standard serial dilution method; format: cell-based; settings: Mueller-Hinton agar, 37° C
[8] = tested on: Staphylococcus aureus Ap01; assay: MIC, standard serial dilution method; format: cell-based; settings: resistance mechanism ANT(4'), Mueller-Hinton agar, 37° C
[9] = tested on: Escherichia coli K-12 R5; assay: microbe, parasite or virus in culture; format: cell-based; settings: K12R5; Escherichia coli K-12 R5; resistance mechanism AAC(6'); Mueller-Hinton agar, 37° C
[10] = tested on: Escherichia coli JR225; assay: microbe, parasite or virus in culture; format: cell-based; settings: resistance mechanism AAC(3), Mueller-Hinton agar, 37° C
[11] = tested on: Bacillus subtilis PCI219; assay: MIC, standard serial dilution method; format: cell-based; settings: Mueller-Hinton agar, 37° C
[12] = tested on: Staphylococcus aureus 209P; assay: MIC, standard serial dilution method; format: cell-based; settings: Mueller-Hinton agar, 37° C
[13] = tested on: Proteus rettgeri GN 311; assay: MIC, standard serial dilution method; format: cell-based; settings: Providencia rettgeri, GN311; Proteus rettgeri GN 311; Mueller-Hinton agar, 37° C; read-out: MIC
[14] = tested on: Escherichia coli K-12; assay: MIC, standard serial dilution method; format: cell-based; settings: K12
[15] = in vivo; settings: mouse, iv, pH 7
Source text: Further, in order to estimate acute toxicity of the compound of the general formula (I) according to this invention, some examples of the compounds of this invention were independently dissolved in water to prepare aqueous solutions (as adjusted to pH 7 by addition of hydrochloric acid). […] The tested compounds of this invention are expressed by the same abbreviations as in Table 1. […] The comparative compounds as tested are also expressed by the same abbreviations as in Table 1.

[16] = tested on: Providencia sp. Pv 16; assay: MIC, standard serial dilution method; format: cell-based; settings: SP.PV16, resistance mechanism AAC(2'), Mueller-Hinton agar, 37° C
[17] = tested on: Escherichia coli JR66/W677; assay: microbe, parasite or virus in culture; format: cell-based; settings: resistance mechanism APH(3')-II, ANT(2"), Mueller-Hinton agar, 37° C
[18] = tested on: Serratia marcescens; assay: MIC, standard serial dilution method; format: cell-based; settings: Mueller-Hinton agar, 37° C
[19] = Escherichia coli K-12 ML 1629, resistance mechanism APH(3')-I, Mueller-Hinton agar, 37° C, read-out: MIC
[20] = Escherichia coli K-12 LA 290 R55, resistance mechanism ANT(2"), Mueller-Hinton agar, 37° C
[21] = Escherichia coli K-12, Mueller-Hinton agar, 37° C, read-out: MIC

Row | SMILES | MIC [1, 19] [µg/mL] | MIC [2] [µg/mL] | MIC [3, 20] [µg/mL] | MIC [4] [µg/mL] | MIC [5] [µg/mL] | MIC [6] [µg/mL] | MIC [7] [µg/mL] | MIC [8] [µg/mL] | MIC [9] [µg/mL] | MIC [10] [µg/mL] | MIC [11] [µg/mL] | MIC [12] [µg/mL] | MIC [13] [µg/mL] | MIC [14, 21] [µg/mL] | LD50 [15] [mg/kg] | MIC [16] [µg/mL] | MIC [17] [µg/mL] | MIC [18] [µg/mL] | further results
1 | CN[C@@H]1[C@@H](O)[C@@H](O[C@@H]2[C@@H](O)[C@H](O[C@H]3O[C@H]([C@@H](C)N)CC[C@H]3N)[C@@H](N)C[C@H]2N)OC[C@]1(C)O [Genta-C2, gentamicin C2, reference compound] | 0.39 (≈ 0.841 µM) | 1.56 (≈ 3.37 µM) | 12.5 (≈ 27 µM) | 3.12 (≈ 6.73 µM) | 0.39 (≈ 0.841 µM) | 12.5 (≈ 27 µM) | 0.39 (≈ 0.841 µM) | 0.78 (≈ 1.68 µM) | 1.56 (≈ 3.37 µM) | 6.25 (≈ 13.5 µM) | < 0.2 | < 0.2 | 0.2 (≈ 0.431 µM) | < 0.2 | ~90 | 6.25 (≈ 13.5 µM) | 25 (≈ 53.9 µM) | 0.78 (≈ 1.68 µM) | 
2 | CN[C@@H]1[C@@H](O)[C@@H](O[C@H]2[C@H](N)C[C@H](N)[C@@H](O[C@H]3O[C@H]([C@@H](C)N)CC[C@H]3N)C2(F)F)OC[C@]1(C)O [Compound 5FF-Genta-C2, 5-deoxy-5,5-difluorogentamicin C2] |  | 0.78 (≈ 1.61 µM) | 3.12 (≈ 6.45 µM) | 25 (≈ 51.7 µM) | 0.78 (≈ 1.61 µM) | 1.56 (≈ 3.23 µM) | 1.56 (≈ 3.23 µM) | 6.25 (≈ 12.9 µM) | 1.56 (≈ 3.23 µM) | 6.25 (≈ 12.9 µM) | 0.2 (≈ 0.414 µM) | 0.78 (≈ 1.61 µM) | 0.78 (≈ 1.61 µM) |  | ~230 | 6.25 (≈ 12.9 µM) | 3.12 (≈ 6.45 µM) | 0.78 (≈ 1.61 µM) | MIC ([1]; Escherichia coli): 0.78 µg/mL (≈ 1.61 µM); MIC ([14]; Escherichia coli): 0.78 µg/mL (≈ 1.61 µM)
3 | CN[C@@H]1[C@@H](O)[C@@H](O[C@H]2[C@H](N)C[C@H](N)[C@@H](O[C@H]3O[C@H]([C@@H](C)NC)CC[C@H]3N)C2(F)F)OC[C@]1(C)O [Compound 5FF-Genta-C1, 5-deoxy-5,5-difluorogentamicin C1] | 1.56 (≈ 3.14 µM) | 1.56 (≈ 3.14 µM) |  | 25 (≈ 50.2 µM) | 3.12 (≈ 6.27 µM) | 3.12 (≈ 6.27 µM) | 6.25 (≈ 12.6 µM) | 12.5 (≈ 25.1 µM) | 1.56 (≈ 3.14 µM) | 12.5 (≈ 25.1 µM) | 1.56 (≈ 3.14 µM) | 1.56 (≈ 3.14 µM) | 1.56 (≈ 3.14 µM) | 1.56 (≈ 3.14 µM) | ~200 | 25 (≈ 50.2 µM) | 0.78 (≈ 1.57 µM) | 1.56 (≈ 3.14 µM) | MIC ([3]; Escherichia coli): 0.78 µg/mL (≈ 1.57 µM)
4 | CN[C@@H]1[C@@H](O)[C@@H](O[C@H]2[C@H](N)C[C@H](N)[C@@H](O[C@H]3O[C@H](CN)CC[C@H]3N)C2(F)F)OC[C@]1(C)O [5FF-Genta-C1a, 5-deoxy-5,5-difluorogentamicin C1a] | 0.39 (≈ 0.831 µM) | 0.78 (≈ 1.66 µM) | 3.12 (≈ 6.64 µM) | 100 (≈ 213 µM) | 0.78 (≈ 1.66 µM) | 1.56 (≈ 3.32 µM) | 0.78 (≈ 1.66 µM) | 3.12 (≈ 6.64 µM) | 12.5 (≈ 26.6 µM) | 3.12 (≈ 6.64 µM) | 0.39 (≈ 0.831 µM) | 0.78 (≈ 1.66 µM) | 0.39 (≈ 0.831 µM) | < 0.2 | ~240 | 12.5 (≈ 26.6 µM) | 1.56 (≈ 3.32 µM) | 6.25 (≈ 13.3 µM) | 
5 | CCN[C@@H]1C[C@H](N)[C@@H](O[C@H]2OC(CN)=CC[C@H]2N)[C@H](O)[C@H]1O[C@H]1OC[C@](C)(O)[C@H](NC)[C@H]1O [Netilmicin, netilmicin, reference compound] | 0.39 (≈ 0.82 µM) | 1.56 (≈ 3.28 µM) | 0.39 (≈ 0.82 µM) | > 100 | 1.56 (≈ 3.28 µM) | 0.39 (≈ 0.82 µM) | 0.39 (≈ 0.82 µM) | 0.78 (≈ 1.64 µM) | 50 (≈ 105 µM) | 12.5 (≈ 26.3 µM) | < 0.2 | < 0.2 | 0.39 (≈ 0.82 µM) | < 0.2 | 30 | 6.25 (≈ 13.1 µM) | 0.39 (≈ 0.82 µM) | 6.25 (≈ 13.1 µM) | 

Reference: patent publication US5527781A, “4-O-(aminoglycosyl)- or 4,6-di-O-(aminoglycosyl)-2,5-dideoxy-5,5-difluorostreptamine derivatives” (Zaidan Hojin Biseibutsu Kagaku Kenkyu Kai, priority 1990, dated 1996)
